In data set [1] the test system is Z-138 cells. As to the kind of experiment: Inhibitory activity on tumor cell proliferation (Cell-Titer Glo, 8 days). The format is cell-based. To be noted: Homo sapiens, 192 h, read-out: Inhibition of cell proliferation Z-138 IC50. The protocol:
Materials and cells: Z-138 cells were purchased from ATCC (USA); IMDM medium and penicillin-streptomycin were purchased from Sigma PLC. (USA); horse serum was purchased from Hyclone (USA); 96-well plate was purchased from Corning (USA); and Cell-Titer Glo reagent was purchased from Promega (USA).
(§1) Cell culture: Z-138 cells were cultured in an IMDM culture solution containing 10% Horse serum+1% penicillin−streptomycin at 37° C., 5% CO2. Cells in logarithmic growth phase were suitable for the experiment.
Detection of cell proliferation activity: The inhibitory activities of the compounds on the proliferation of Z-138 cells were detected by using the Cell-Titer Glo reagent. The concentrations of the cells were adjusted, and 180 μL was inoculated in each well of the 96-well plate (500/well) and equilibrated for 10-15 minutes at 37° C., 5% CO2. 20 μL of a culture solution containing the compounds was added into each well with the final concentration reaching 0-300 nM (initial concentration: 300 nM, 3-fold dilution, for 10 points), and the DMSO content was 0.1%. The cell plate was placed at 37° C., 5% CO2 and incubated for 8 days. Culture solution was replaced at day 4: 100 μL of the supernatant was slowly aspirated and 100 μL of a fresh culture solution containing the compounds was provided as a supplement while the concentrations of the compounds were held constant. The cell viability was detected by using the Cell-Titer Glo reagent.

The nature of data set [2]: Hepatocellular metabolic stability test, mouse hepatocytes.
Description: Experimental materials: Human hepatocytes were purchased from Biopredic; mouse hepatocytes were purchased from BioIVT; acetonitrile and methanol were purchased from Merck & Co., Inc.; AOPI dyes were purchased from Nexcelom; dexamethasone was purchased from NIFDC; DMSO was purchased from Beijing Solarbio Science & Technology Co., Ltd.; DPBS (10×), GlutaMAX™-1 (100×) and recombinant human insulin were purchased form Gibco by Life Technologies; fetal bovine serum was purchased from Corning; formic acid was purchased from DIKMAPURE; Isotonic Percoll was purchased from GE Healthcare; alprazolam was purchased from Supelco; caffeine was purchased from ChromaDex.inc; and HEPES, tolbutamide and Williams' Medium E were purchased from Sigma.
The powder of a test substance was formulated with DMSO into a stock solution with a high concentration, which was diluted to a working solution of 100 μM with acetonitrile prior to use. The final concentration of the test substance was 1 μM.
49.5 mL of Williams'E Medium and 0.5 mL of GlutaMAX were mixed as an incubation media. Hepatocyte thawing media and incubation media were placed in a 37° C. water-bath and pre-heated for at least 15 minutes prior to use. A tube of hepatocytes stored at an ultra-low temperature was taken and the hepatocytes were ensured to be at a frozen state at a low temperature prior to thawing. The hepatocytes were rapidly placed in a 37° C. water-bath and gently shaken until all the ice crystals were dispersed, and then after 70% ethanol was sprayed, the hepatocytes were transferred to a biosafety cabinet. The content of the tube was poured into a centrifugal tube containing 50 mL of thawing media and centrifuged at 100 g for 10 minutes. After centrifugation, the thawing media was aspirated, and a sufficient amount of incubation media was added to obtain a cell suspension with a cell density of about 1.5×10^6 cells/mL. The hepatocytes were counted, and the viable cell density was determined using Cellometer Vision, and the survival rate of the hepatocytes must be higher than 75%. The hepatocyte suspension was diluted by using the incubation media to a viable cell density of 0.5×10^6 viable cells/mL.
247.5 μL of viable cell (human hepatocytes or mouse hepatocytes) suspension or media were transferred into a 96-well deep-well plate, and the deep-well plate was placed in a vortex incubator and pre-heated for 10 minutes. Incubation of all the samples was performed in parallel duplicate. Test substance (2.5 μL, 100 μM) was added into each well to start the reaction and the deep-well plate was placed in the vortex incubator again. The samples were incubated, and 25 μL of the suspension was taken at 0, 15, 30, 60, 90 and 120 minutes, respectively. 125 μL of acetonitrile containing internal standard (100 nM alprazolam, 200 nM caffeine, and 100 nM tolbutamide) was added to terminate the reaction. The mixture was vortexed for 10 minutes and centrifuged at 3220 g, 4° C. for 30 minutes. After centrifugation, 100 μL of the supernatant was transferred into the loading plate and 150 μL of pure water was added and mixed uniformly for LC-MS/MS analysis.
All the data calculation was performed by the Microsoft Excel software. The peak area was detected by extracting the ion chromatogram. The in vitro half-life (t1/2) of the parent drug was detected by performing linear fitting of the natural logarithm of elimination percent of the parent drug and time.
The in vitro half-life (t1/2) was calculated by means of the slope:
Data set [3] has as its system SDMA in Z-138 cells. Briefly: Inhibitory activity on SDMA in cells (immunofluorescent assay). The format is cell-based. The conditions noted are these: Homo sapiens, 48 h, 2 days, read-out: Inhibition of SDMA in cells IC50.
Description: Materials and cells: Z-138 cells were purchased from ATCC (USA); IMDM medium and penicillin-streptomycin were purchased from Sigma PLC. (USA); horse serum was purchased from Hyclone (USA); Hoechst antibodies were purchased from Invitrogen (USA); Alexa Fluor 488 goat anti-rabbit IgG antibodies were purchased from Invitrogen (USA); Anti-dimethyl-Arginine symmetric (SYM11) antibodies were purchased from Merck & Co., Inc. (USA); DPBS was purchased from Gibco (USA); Nonfat Dry milk was purchased from Cell Signaling Technology (USA); paraformaldehyde was purchased from Beijing Solarbio Science & Technology Co., Ltd.; 384-well plate and Echo 550 Liquid Handler were purchased from Labcyte Inc. (USA); and an ImageXpress Nano was purchased from Molecular Devices (USA).
as §1
Immunofluorescent assay: The effects of the compounds on SDMA in Z-138 cells were detected by using immunofluorescence. The cells were adjusted to the concentration of 1*10^5/mL and 40 μL was inoculated in each well of the 384-well plate (4000/well) and equilibrated for 10-15 minutes at 37° C., 5% CO2. The compound was added into a 384-well plate by using the Echo 550 Liquid Handler with the final concentration of 0-300 nM (initial concentration: 300 nM, 3-fold dilution, for 10 points), and the DMSO content was 0.1%. The cell plate was placed at 37° C., 5% CO2 and incubated for 2 days. 40 μL of 8% paraformaldehyde was added into each well and incubated at room temperature for 30 minutes. The supernatant was discarded, the plate was washed with DPBS, and 40 μL of 0.5% PBST (phosphate buffer with Tween) was added into each well and incubated at room temperature for 60 minutes. The supernatant was discarded, the plate was washed with 0.05% PBST, and 40 μL of a blocking solution (1% Nonfat milk in 0.05% PBST) was added into each well and incubated at room temperature for 60 minutes. The supernatant was discarded, and 20 μL of the primary antibody (SYM11, diluted with a blocking solution at 1:500) was added into each well and maintained at 4° C. overnight. The supernatant was discarded, the plate was washed with 0.05% PBST, 20 μL of the secondary antibody (Alexa Fluor 488 goat anti-rabbit and Hoechst, diluted with a blocking solution at 1:1000 and 1:5000, respectively) was added to each well and incubated at room temperature for 60 minutes. The supernatant was discarded, the plate was washed with 0.05% PBST, and the fluorescent intensity was detected with ImageXpress Nano.

Regarding `CCN1CCN(C[C@@H](O)[C@@H]2Cc3ccccc3CN2)C(=O)c2ccc(C(=O)N3CCC4(CC3)CC(OC)C4)cc21.Cl` [Compound 002, 1-ethyl-4-((R)-2-hydroxy-2-((S)-1,2,3,4-tetrahydroisoquinolin-3-yl)ethyl)-8-(2-methoxy-7-azaspiro[3.5]nonane-7-carbonyl)-1,2,3,4-tetrahydro-5H-benzo[e][1,4]diazepin-5-one hydrochloride], the results for the IC50 in data set [1] and in data set [3] were 2.19 nM and 1.4 nM, respectively. In addition, in data set [2], the half-life at 1 μM is 1.58 h.

For orientation: half-life means the time needed for the level to fall by half in the phase considered. Lower therefore signals fast loss.

The values are drawn from patent publication US20230250108A1, “TETRAHYDROISOQUINOLINE COMPOUNDS AND USE THEREOF” (JIANGSU SIMCERE PHARMACEUTICAL CO., LTD., priority 2020, published 2023).
